The values below come from PMC9853864, “Nonspecific Binding of Adenosine Tripolyphosphate and Tripolyphosphate Modulates the Phase Behavior of Lysozyme” (Journal of the American Chemical Society, 2023).

In the assay the target is T1, hen egg-white lysozyme (HEWL); chicken egg lysozyme (Gallus gallus, UniProt P00698).
T1 construct: gene LYZ
Description: 1H NMR titration, Trp imino CSP (W62, W111, W123), […] fit. It counts as binding.

T1 sequence (P00698 19-147): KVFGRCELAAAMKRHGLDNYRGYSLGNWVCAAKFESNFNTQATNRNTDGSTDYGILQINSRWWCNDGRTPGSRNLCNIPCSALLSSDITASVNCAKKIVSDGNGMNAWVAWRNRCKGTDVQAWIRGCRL

`O=P(O)(O)OP(=O)(O)OP(=O)(O)O` [TPP]: the Kd is roughly 1000 µM.

As a reminder, the Kd is the constant that tells how readily two partners part at equilibrium. A high value points to weaker binding.
